ChEMBL document CHEMBL4138192, “Design, synthesis and evaluation of novel dihydrostilbene derivatives as potential anti-melanogenic skin-protecting agents” (Eur J Med Chem, 2018)
The source made the active and inactive calls. No cut-off for these calls is given here.

Assays:
[1] = tested on: A-375; assay: Inhibition of alpha-MSH-induced TRP-2 expression in human A375 cells at 25 uM after 24 hrs by Western blot method; type: functional, cell-based
[2] = tested on: A-375; assay: Inhibition of alpha-MSH-induced TRP-1 expression in human A375 cells at 25 uM after 24 hrs by Western blot method; type: functional, cell-based
[3] = Growth inhibition of human A375 cells at 25 uM after 48 hrs by SRB assay relative to control; type: cell-based, A-375; settings: read-out: GI
[4] = target: T1, Tyrosinase (Mus musculus) (UniProt P11344); assay: Inhibition of tyrosinase in mouse B16 cells assessed as effect on alpha-MSH-induced melanin formation at 25 uM after 24 hrs relative to control; type: cell-based; parameters: scale not given: the % may be the effect or the level left
T1 sequence (whole entry): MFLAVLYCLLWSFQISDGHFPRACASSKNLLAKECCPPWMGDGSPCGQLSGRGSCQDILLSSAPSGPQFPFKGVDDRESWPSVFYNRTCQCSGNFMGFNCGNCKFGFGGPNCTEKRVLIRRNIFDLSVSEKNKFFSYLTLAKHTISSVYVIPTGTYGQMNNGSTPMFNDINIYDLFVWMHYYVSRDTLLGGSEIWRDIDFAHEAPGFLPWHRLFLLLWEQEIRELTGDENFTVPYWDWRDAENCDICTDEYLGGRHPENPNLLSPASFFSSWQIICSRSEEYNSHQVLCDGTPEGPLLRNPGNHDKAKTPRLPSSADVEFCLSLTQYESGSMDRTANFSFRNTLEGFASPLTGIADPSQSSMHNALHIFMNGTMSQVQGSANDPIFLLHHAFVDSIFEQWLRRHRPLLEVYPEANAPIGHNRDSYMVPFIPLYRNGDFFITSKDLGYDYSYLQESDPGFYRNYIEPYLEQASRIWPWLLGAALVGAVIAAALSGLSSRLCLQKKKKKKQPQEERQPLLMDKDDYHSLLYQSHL

[5] = target: T2, Tyrosinase (Homo sapiens) (UniProt P14679); assay: Inhibition of tyrosinase in human A375 cells assessed as effect on alpha-MSH-induced melanin formation at 25 uM after 24 hrs relative to control; type: cell-based; parameters: scale not given: the % may be the effect or the level left
T2 sequence (whole entry): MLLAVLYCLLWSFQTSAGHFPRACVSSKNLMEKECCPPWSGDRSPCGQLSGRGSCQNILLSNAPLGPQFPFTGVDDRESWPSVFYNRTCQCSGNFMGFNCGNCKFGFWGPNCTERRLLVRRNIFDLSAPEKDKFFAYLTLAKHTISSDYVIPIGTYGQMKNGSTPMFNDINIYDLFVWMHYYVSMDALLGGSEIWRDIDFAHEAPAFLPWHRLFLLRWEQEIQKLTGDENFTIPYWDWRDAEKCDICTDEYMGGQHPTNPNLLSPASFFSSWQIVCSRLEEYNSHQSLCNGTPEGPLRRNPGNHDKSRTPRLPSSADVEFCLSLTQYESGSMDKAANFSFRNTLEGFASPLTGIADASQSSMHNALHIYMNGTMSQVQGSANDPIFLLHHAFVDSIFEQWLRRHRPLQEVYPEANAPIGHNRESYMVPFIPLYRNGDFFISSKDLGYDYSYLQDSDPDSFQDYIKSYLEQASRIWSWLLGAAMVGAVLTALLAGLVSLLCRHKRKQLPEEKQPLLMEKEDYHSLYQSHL

[6] = Antioxidant activity assessed as ABTS radical scavenging activity at 25 uM after 15 mins; type: functional; parameters: reference not given here
[7] = Growth inhibition of mouse B16 cells at 25 uM after 48 hrs by SRB assay relative to control; type: cell-based; settings: read-out: GI
[8] = tested on: A-375; assay: Inhibition of alpha-MSH-induced reactive oxygen species generation in human A375 cells at 25 uM after 4 hrs by DCFDA staining-based fluorescence assay; type: functional, cell-based
[9] = target: T1, Tyrosinase (Mus musculus); assay: Inhibition of tyrosinase in mouse B16 cells at 25 uM using L-DOPA as substrate after 24 hrs by spectrophotometric method; type: cell-based
[10] = target: T2, Tyrosinase (Homo sapiens); assay: Inhibition of tyrosinase in human A375 cells at 25 uM using L-DOPA as substrate after 24 hrs by spectrophotometric method; type: cell-based

| SMILES | inhibition [1] | inhibition [2] | inhibition at 48 h, 25 µM [3] | Activity [4] | Activity [5] | Activity [6] | inhibition at 48 h, 25 µM [7] | inhibition [8] | inhibition [9] | inhibition [10] |
| --- | --- | --- | --- | --- | --- | --- | --- | --- | --- | --- |
| Oc1ccc(CCc2cc(O)cc(O)c2)cc1 [DIHYDRORESVERATROL] | Active | Active | 6.42% | 78.3% | 78% | 4970 mg.equiv | 5.2% | Active | – | – |
| Oc1ccc(/C=C/c2cc(O)cc(O)c2)cc1 [RESVERATROL] | Active | Active | 9.79% | 80.2% | 80.4% | – | 13.1% | Active | – | – |
| CCCC(=O)Oc1ccc(CCc2cc(OC(=O)CCC)cc(OC(=O)CCC)c2)cc1 | – | – | 17.9% | 96.2% | 98.9% | 94.3 mg.equiv | 4.81% | – | inactive | Active |
| CC(C)(C)C(=O)Oc1ccc(CCc2cc(OC(=O)C(C)(C)C)cc(OC(=O)C(C)(C)C)c2)cc1 | – | – | 9.53% | 93% | 94.6% | – | 6.91% | – | – | – |
| C=CC(=O)Oc1ccc(CCc2cc(OC(=O)C=C)cc(OC(=O)C=C)c2)cc1 | Active | Active | 15.6% | 76% | 50.5% | 15.9 mg.equiv | 13.9% | Active | Active | Active |
| O=C(Oc1ccc(CCc2cc(OC(=O)C3CCCC3)cc(OC(=O)C3CCCC3)c2)cc1)C1CCCC1 | – | – | 14.3% | 95.9% | 97.2% | – | 9.69% | – | – | – |
| O=C(Oc1ccc(CCc2cc(OC(=O)c3ccc(Cl)cc3)cc(OC(=O)c3ccc(Cl)cc3)c2)cc1)c1ccc(Cl)cc1 | – | – | 21.5% | 99.2% | 93.4% | – | 5.26% | – | – | – |
| O=C1O[C@H]([C@@H](O)CO)C(O)=C1O [ASCORBIC ACID] | Active | Active | 8.63% | 83.7% | 75% | – | 4.94% | – | – | – |
| O=C(Oc1ccc(CCc2cc(OC(=O)c3ccccc3)cc(OC(=O)c3ccccc3)c2)cc1)c1ccccc1 | – | – | 4.55% | 87% | 85.2% | – | 4.92% | – | – | – |
| C=CCOc1ccc(CCc2cc(OCC=C)cc(OCC=C)c2)cc1 | – | – | 6.83% | 96.5% | 88.1% | 119 mg.equiv | 1.31% | – | inactive | Active |
| COc1ccc(C(=O)Oc2ccc(CCc3cc(OC(=O)c4ccc(OC)cc4)cc(OC(=O)c4ccc(OC)cc4)c3)cc2)cc1 | – | – | 6.05% | 94.7% | 104% | – | 5.12% | – | – | – |
| CCCOc1ccc(CCc2cc(OCCC)cc(OCCC)c2)cc1 | – | – | 3.36% | 94.7% | 85.1% | 30.2 mg.equiv | 1.34% | – | – | – |
| O=C(OCc1ccccc1)Oc1ccc(CCc2cc(OC(=O)OCc3ccccc3)cc(OC(=O)OCc3ccccc3)c2)cc1 | – | – | 6.35% | 89.9% | 92.4% | – | 5.12% | – | – | – |
